Experiment: Evaluation of flavor-improving effects by addition of γ-aminobutyric acid and naringenin (sensory, 3 evaluators)
Type: in vivo
Set-up: key to Evaluation (grade): VP (very poor): worse than base; P (poor): difference from base not acknowledged, insufficient effects; G (good): different from base, favorable flavor; E (excellent): significantly different from base, very favorable flavor
Description: (1) Evaluation of Flavor-Improving Effects by Addition of γ-Aminobutyric Acid and Naringenin
To a base of a 0.05% aqueous solution of Rebaudio J-100, γ-aminobutyric acid (product name: 4-amino-n-butyric acid, produced by Nacalai Tesque, Inc.) and naringenin (product name: Naringenin, produced by LKT Laboratories, Inc.) were individually added in the amounts as described in the following table, and the flavor-improving effects thereof were evaluated.

[1] = naringenin alone 0.0010 ppb in base
[2] = naringenin alone 0.0100 ppb in base
[3] = naringenin alone 460.0000 ppb in base

NCCCC(=O)O [GABA, γ-aminobutyric acid]
Not different from base: Evaluation (comment in words) (GABA alone 0.0100 ppb in base) | Evaluation (comment in words) (GABA alone 0.1000 ppb in base)
Reduced total taste: Evaluation (comment in words) (GABA alone 1.0000 ppb in base)
P: Evaluation (grade) (GABA alone 0.0100 ppb in base) | Evaluation (grade) (GABA alone 0.1000 ppb in base) | Evaluation (grade) (GABA alone 1.0000 ppb in base) | Evaluation (grade) (GABA alone 10.0000 ppb in base) | Evaluation (grade) (GABA alone 100.0000 ppb in base) | Evaluation (grade) (GABA alone 500.0000 ppb in base)
VP: Evaluation (grade) (GABA alone 1000.0000 ppb in base) | Evaluation (grade) (GABA alone 10000.0000 ppb in base)

O=C1C[C@@H](c2ccc(O)cc2)Oc2cc(O)cc(O)c21 [naringenin]
Not different from base: Evaluation (comment in words) [1] | Evaluation (comment in words) [2]
Bitterness left in mouth: Evaluation (comment in words) [3]
P: Evaluation (grade) [1] | Evaluation (grade) [2] | Evaluation (grade) (naringenin alone 0.1000 ppb in base) | Evaluation (grade) (naringenin alone 1.0000 ppb in base) | Evaluation (grade) (naringenin alone 10.0000 ppb in base) | Evaluation (grade) [3] | Evaluation (grade) (naringenin alone 1000.0000 ppb in base) | Evaluation (grade) (naringenin alone 10000.0000 ppb in base)
